In ChEMBL document CHEMBL2007661, “Compounds: GSK PKIS; Assays: UNC Frye lab” (2012):
Several values for one entry are separate records, joined by “and”; a condition that tells them apart may be missing. Equal values may be shown once.

Experiments:
[1] = molecular target: T1, Inhibitor of nuclear factor kappa-B kinase subunit epsilon (Homo sapiens) (UniProt Q14164); details: at 1 µM
T1 sequence (whole entry): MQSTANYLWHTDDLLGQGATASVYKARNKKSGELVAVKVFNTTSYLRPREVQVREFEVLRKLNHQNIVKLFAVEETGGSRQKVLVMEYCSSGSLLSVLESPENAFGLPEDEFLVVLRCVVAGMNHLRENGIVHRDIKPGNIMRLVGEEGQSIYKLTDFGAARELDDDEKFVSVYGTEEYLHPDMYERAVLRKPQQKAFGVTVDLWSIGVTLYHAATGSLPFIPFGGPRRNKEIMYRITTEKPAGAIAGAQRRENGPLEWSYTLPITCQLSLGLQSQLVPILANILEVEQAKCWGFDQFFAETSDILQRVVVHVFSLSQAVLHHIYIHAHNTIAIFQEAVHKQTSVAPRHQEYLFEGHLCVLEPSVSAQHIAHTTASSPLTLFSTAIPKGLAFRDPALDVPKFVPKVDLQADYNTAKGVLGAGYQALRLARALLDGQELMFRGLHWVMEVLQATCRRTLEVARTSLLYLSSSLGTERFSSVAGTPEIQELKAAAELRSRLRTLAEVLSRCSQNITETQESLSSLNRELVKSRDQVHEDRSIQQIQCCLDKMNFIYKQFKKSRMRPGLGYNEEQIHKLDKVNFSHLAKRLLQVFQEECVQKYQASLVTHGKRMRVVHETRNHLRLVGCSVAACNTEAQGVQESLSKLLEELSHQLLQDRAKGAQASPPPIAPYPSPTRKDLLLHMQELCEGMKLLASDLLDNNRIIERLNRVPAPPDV

[2] = molecular target: T2, Inhibitor of nuclear factor kappa-B kinase subunit beta (Homo sapiens) (UniProt O14920); details: at 1 µM
T2 sequence (whole entry): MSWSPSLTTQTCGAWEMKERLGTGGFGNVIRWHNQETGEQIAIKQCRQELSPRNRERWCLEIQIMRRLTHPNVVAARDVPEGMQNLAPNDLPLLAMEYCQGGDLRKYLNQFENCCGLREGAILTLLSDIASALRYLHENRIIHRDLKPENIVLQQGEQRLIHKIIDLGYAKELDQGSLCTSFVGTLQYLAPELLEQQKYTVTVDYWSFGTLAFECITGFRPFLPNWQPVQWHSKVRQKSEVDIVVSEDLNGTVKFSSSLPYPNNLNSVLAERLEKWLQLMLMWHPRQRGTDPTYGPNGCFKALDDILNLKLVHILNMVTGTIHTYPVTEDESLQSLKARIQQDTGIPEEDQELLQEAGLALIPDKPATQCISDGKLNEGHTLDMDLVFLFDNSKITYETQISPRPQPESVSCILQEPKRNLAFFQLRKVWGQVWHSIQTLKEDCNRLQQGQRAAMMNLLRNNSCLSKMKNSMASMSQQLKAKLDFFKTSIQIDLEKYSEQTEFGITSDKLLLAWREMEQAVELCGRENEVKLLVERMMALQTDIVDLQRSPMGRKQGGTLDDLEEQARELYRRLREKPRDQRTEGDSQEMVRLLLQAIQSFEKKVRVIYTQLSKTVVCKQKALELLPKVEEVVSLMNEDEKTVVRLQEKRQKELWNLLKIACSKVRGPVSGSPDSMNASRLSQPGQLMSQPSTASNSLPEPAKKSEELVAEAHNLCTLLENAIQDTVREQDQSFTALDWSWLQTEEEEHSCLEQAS

[3] = molecular target: T3, Tyrosine-protein kinase Mer (Homo sapiens) (UniProt Q12866); details: at 10 µM
T3 sequence (whole entry): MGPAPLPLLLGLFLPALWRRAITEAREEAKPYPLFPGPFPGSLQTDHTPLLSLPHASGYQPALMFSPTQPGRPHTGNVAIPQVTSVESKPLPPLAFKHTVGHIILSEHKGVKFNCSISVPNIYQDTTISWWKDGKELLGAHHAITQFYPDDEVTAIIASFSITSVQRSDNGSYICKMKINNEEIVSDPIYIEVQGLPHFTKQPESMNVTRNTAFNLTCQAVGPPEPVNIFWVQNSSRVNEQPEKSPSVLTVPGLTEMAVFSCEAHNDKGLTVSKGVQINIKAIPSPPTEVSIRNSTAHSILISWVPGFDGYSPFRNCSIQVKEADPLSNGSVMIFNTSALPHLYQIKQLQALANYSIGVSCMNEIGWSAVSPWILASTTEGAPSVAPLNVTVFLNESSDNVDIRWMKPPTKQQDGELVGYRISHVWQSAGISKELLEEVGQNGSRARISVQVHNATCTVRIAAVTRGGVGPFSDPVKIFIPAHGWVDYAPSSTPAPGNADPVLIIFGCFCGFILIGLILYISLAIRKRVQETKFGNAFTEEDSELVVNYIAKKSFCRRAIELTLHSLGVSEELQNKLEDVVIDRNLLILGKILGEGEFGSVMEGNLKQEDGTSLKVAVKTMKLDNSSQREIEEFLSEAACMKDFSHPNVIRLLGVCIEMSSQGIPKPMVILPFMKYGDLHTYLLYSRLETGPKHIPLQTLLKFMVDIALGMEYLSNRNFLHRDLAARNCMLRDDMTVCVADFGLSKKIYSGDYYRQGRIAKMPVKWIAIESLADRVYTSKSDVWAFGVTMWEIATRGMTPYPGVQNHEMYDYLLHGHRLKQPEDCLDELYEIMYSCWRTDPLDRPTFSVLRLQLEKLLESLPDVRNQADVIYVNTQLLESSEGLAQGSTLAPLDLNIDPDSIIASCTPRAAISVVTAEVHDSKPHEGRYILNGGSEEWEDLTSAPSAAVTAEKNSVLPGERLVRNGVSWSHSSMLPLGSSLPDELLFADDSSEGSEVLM

Compound	inhibition [1]	inhibition [2]	inhibition [3]
COc1cccc(-n2ncc3c(N/N=C/c4ccc(C)cc4)ncnc32)c1	0%	0% and -2%	25%
CC1=C(C(=O)Nc2ccc3[nH]ncc3c2)C(c2ccc(F)cc2)N=C(c2ccc(C(F)(F)F)nc2)N1 (centres undefined)	3% and 0%	-2% and -3%	-4%
COc1cccc(-n2ncc3c(N/N=C/c4ccc(S(C)(=O)=O)cc4)ncnc32)c1	3% and 0%	-1%	5%
